Reference: patent US8614327B2 (Vertex Pharmaceuticals Incorporated, priority 2004, dated 2013)

Biological target: T1, ΔF508-CFTR (Homo sapiens, UniProt P13569, DEL508-508)
T1 construct: expressed in transfected cells
Assay: Membrane potential optical (FRET/VIPR) assay, identification of potentiator compounds
Type: cell-based
Settings: Table 3, assay not given; for % Activity: relative efficacy
Outline: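 NIH3T3 mouse fibroblasts stably expressing ΔF508-CFTR, temperature-corrected 24 h at 27° C., read on VIPR by FRET between CC2-DMPE and DiSBAC2(3). Potentiators identified in a double-addition format, first adding chloride-free (gluconate) medium with or without compound.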

T1 sequence (P13569 with tags, fused parts or gaps DEL508-508): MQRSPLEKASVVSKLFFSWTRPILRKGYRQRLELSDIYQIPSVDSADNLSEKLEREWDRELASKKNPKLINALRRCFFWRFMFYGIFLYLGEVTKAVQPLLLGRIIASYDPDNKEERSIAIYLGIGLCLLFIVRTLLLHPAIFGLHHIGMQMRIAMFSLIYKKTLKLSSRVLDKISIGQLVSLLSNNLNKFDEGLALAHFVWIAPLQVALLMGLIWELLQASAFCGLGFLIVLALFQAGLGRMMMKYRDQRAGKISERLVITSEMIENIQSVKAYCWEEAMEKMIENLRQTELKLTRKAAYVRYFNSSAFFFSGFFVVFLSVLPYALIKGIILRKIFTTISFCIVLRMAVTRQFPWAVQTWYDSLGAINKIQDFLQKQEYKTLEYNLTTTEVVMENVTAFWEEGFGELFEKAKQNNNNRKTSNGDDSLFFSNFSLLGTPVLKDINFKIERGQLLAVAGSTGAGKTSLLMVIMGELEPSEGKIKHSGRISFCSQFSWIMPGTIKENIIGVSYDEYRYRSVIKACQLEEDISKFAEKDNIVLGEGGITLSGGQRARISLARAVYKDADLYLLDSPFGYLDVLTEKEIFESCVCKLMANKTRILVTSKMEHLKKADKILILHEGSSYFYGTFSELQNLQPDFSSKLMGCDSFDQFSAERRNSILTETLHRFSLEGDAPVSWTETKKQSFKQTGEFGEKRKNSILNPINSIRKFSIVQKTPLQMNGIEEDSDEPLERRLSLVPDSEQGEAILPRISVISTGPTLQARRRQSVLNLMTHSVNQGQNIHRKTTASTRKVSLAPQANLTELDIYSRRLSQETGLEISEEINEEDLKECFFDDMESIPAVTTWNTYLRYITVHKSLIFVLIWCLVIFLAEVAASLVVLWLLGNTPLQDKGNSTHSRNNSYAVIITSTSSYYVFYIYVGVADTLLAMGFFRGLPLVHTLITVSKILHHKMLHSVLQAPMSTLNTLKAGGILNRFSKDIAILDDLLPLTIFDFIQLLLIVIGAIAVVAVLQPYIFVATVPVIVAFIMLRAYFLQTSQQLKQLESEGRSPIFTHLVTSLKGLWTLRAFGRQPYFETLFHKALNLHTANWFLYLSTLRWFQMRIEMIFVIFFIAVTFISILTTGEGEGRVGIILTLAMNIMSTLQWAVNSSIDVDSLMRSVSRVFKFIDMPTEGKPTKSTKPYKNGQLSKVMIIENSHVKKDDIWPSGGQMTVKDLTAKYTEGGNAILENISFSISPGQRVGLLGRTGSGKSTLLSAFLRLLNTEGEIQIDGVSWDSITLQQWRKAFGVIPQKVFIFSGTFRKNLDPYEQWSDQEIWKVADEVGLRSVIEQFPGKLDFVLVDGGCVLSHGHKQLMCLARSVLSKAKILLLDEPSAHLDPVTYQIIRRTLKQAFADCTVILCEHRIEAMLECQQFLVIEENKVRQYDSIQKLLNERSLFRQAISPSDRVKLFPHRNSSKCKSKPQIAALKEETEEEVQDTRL

SMILES	EC50 [µM]	% Activity
O=C(Nc1ccc(C(F)(F)F)nc1)c1c[nH]c2ccccc2c1=O [Compound 197, 4-oxo-N-[6-(trifluoromethyl)-3-pyridyl]-1H-quinoline-3-carboxamide]	25 to 60	+ (<25%)
COC(=O)Nc1cc(NC(=O)c2c[nH]c3ccccc3c2=O)ccc1C(C)C [Compound 30, [2-isopropyl-5-[(4-oxo-1H-quinolin-3-yl)carbonylamino]phenyl]aminoformic acid methyl ester]	< 10	++ (between 25% to 100%)
COc1cccc(-c2ccccc2NC(=O)c2c[nH]c3ccccc3c2=O)c1F [Compound 363, N-[2-(2-fluoro-3-methoxy-phenyl)phenyl]-4-oxo-1H-quinoline-3-carboxamide]	< 10	+++ (>100%)
N#Cc1ccc(NC(=O)c2c[nH]c3ccccc3c2=O)cc1 [Compound 194, N-(4-cyanophenyl)-4-oxo-1H-quinoline-3-carboxamide]	25 to 60	+ (<25%)
O=C(Nc1cnccn1)c1c[nH]c2ccccc2c1=O [Compound 219, 4-oxo-N-pyrazin-2-yl-1H-quinoline-3-carboxamide]	25 to 60	+ (<25%)
CC(C)(CO)c1ccc(NC(=O)c2c[nH]c3ccccc3c2=O)cc1 [Compound 5, N-[4-(2-hydroxy-1,1-dimethyl-ethyl)phenyl]-4-oxo-1H-quinoline-3-carboxamide]	10 to 25	++ (between 25% to 100%)
O=C(Nc1ccc(Cl)nc1)c1c[nH]c2ccccc2c1=O [Compound 392, N-(6-chloro-3-pyridyl)-4-oxo-1H-quinoline-3-carboxamide]	25 to 60	+ (<25%)
O=C(Nc1ccc2nc(-c3ccccc3)[nH]c2c1)c1c[nH]c2ccccc2c1=O [Compound 73, 4-oxo-N-(2-phenyl-3H-benzoimidazol-5-yl)-1H-quinoline-3-carboxamide]	25 to 60	+ (<25%)
N#Cc1c(Cl)cccc1NC(=O)c1c[nH]c2ccccc2c1=O [Compound 222, N-(3-chloro-2-cyano-phenyl)-4-oxo-1H-quinoline-3-carboxamide]	10 to 25	++ (between 25% to 100%)
CC(=O)N1CCc2ccc(NC(=O)c3c[nH]c4ccccc4c3=O)cc2C1 [Compound 303, N-(2-acetyl-1,2,3,4-tetrahydroisoquinolin-7-yl)-4-oxo-1H-quinoline-3-carboxamide]	10 to 25	++ (between 25% to 100%)
CCOC(=O)Nc1cc(NC(=O)c2c[nH]c3ccccc3c2=O)ccc1C(C)(C)C [Compound 127, [5-[(4-oxo-1H-quinolin-3-yl)carbonylamino]-2-tert-butyl-phenyl]aminoformic acid ethyl ester]	< 10	++ (between 25% to 100%)
O=C(Nc1ccccc1-c1ccc(F)cc1F)c1c[nH]c2ccccc2c1=O [Compound 63, N-[2-(2,4-difluorophenyl)phenyl]-4-oxo-1H-quinoline-3-carboxamide]	< 10	++ (between 25% to 100%)
Cc1ccc2cccc(NC(=O)c3c[nH]c4ccccc4c3=O)c2n1 [Compound 364, N-(2-methyl-8-quinolyl)-4-oxo-1H-quinoline-3-carboxamide]	< 10	++ (between 25% to 100%)
O=C(Nc1cc(C(F)(F)F)ccc1C(F)(F)F)c1c[nH]c2ccccc2c1=O [Compound 630, N-[2,5-bis(trifluoromethyl)phenyl]-4-oxo-1H-quinoline-3-carboxamide]	< 10	++ (between 25% to 100%)
Cc1ccc(NC(=O)c2c[nH]c3ccccc3c2=O)nc1 [Compound 195, N-(5-methyl-2-pyridyl)-4-oxo-1H-quinoline-3-carboxamide]	25 to 60	+ (<25%)
O=C(Nc1cc(O)c(C2CCCC2)cc1C#CCO)c1c[nH]c2ccccc2c1=O [Compound 512, N-[4-cyclopentyl-5-hydroxy-2-(3-hydroxyprop-1-ynyl)phenyl]-4-oxo-1H-quinoline-3-carboxamide]	< 10	++ (between 25% to 100%)
Cc1cccc2[nH]cc(C(=O)Nc3ccc(N4CCC[C@@H]4C)cc3C(F)(F)F)c(=O)c12 [Compound 511, (S)-5-methyl-N-(4-(2-methylpyrrolidin-1-yl)-2-(trifluoromethyl)phenyl)-4-oxo-1,4-dihydroquinoline-3-carboxamide]	< 10	++ (between 25% to 100%)

Next, values leading:

EC50 [µM]	% Activity	SMILES
< 10	++ (between 25% to 100%)	O=C(Nc1ccc(N2CCCCC2)cc1C(F)(F)F)c1c[nH]c2ccccc2c1=O [Compound 686, 4-oxo-N-[4-(1-piperidyl)-2-(trifluoromethyl)phenyl]-1H-quinoline-3-carboxamide]
< 10	++ (between 25% to 100%)	CCOC(=O)Cc1c[nH]c2cc(NC(=O)c3c[nH]c4ccccc4c3=O)ccc12 [Compound 207, 2-[6-[(4-oxo-1H-quinolin-3-yl)carbonylamino]-1H-indol-3-yl]acetic acid ethyl ester]
< 10	++ (between 25% to 100%)	CC1(C)CCNc2cc(NC(=O)c3c[nH]c4ccccc4c3=O)ccc21 [Compound 300, N-(4,4-Dimethyl-1,2,3,4-tetrahydroquinolin-7-yl)-4-oxo-1H-quinoline-3-carboxamide]
< 10	++ (between 25% to 100%)	COc1ccc2c(=O)c(C(=O)Nc3ccc(N4CCC[C@@H]4C)cc3C(F)(F)F)c[nH]c2c1 [Compound 642, (S)-7-methoxy-N-(4-(2-methylpyrrolidin-1-yl)-2-(trifluoromethyl)phenyl)-4-oxo-1,4-dihydroquinoline-3-carboxamide]
< 10	++ (between 25% to 100%)	O=C(Nc1ccccc1N1CCOCC1)c1c[nH]c2ccccc2c1=O [Compound 4, N-(2-morpholinophenyl)-4-oxo-1H-quinoline-3-carboxamide]
< 10	+++ (>100%)	CC(C)(C)c1cc(C(C)(C)C)c(NC(=O)c2c[nH]c3ccc(F)cc3c2=O)cc1O [Compound 103, 6-fluoro-N-(5-hydroxy-2,4-ditert-butyl-phenyl)-4-oxo-1H-quinoline-3-carboxamide]
< 10	+++ (>100%)	C[C@H]1CCCCN1c1ccc(NC(=O)c2c[nH]c3ccccc3c2=O)c(C(F)(F)F)c1 [Compound 713, (S)-N-(4-(2-methylpiperidin-1-yl)-2-(trifluoromethyl)phenyl)-4-oxo-1,4-dihydroquinoline-3-carboxamide]
< 10	++ (between 25% to 100%)	CC(C)(C)c1cc(NC(=O)c2c[nH]c3ccccc3c2=O)c(O)c(C(C)(C)C)c1 [Compound 136, N-(2-hydroxy-3,5-ditert-butyl-phenyl)-4-oxo-1H-quinoline-3-carboxamide]
< 10	++ (between 25% to 100%)	CC(C)(C)c1cc2cc[nH]c2cc1NC(=O)c1c[nH]c2ccccc2c1=O [Compound 381, 4-oxo-N-(5-tert-butyl-1H-indol-6-yl)-1H-quinoline-3-carboxamide]
< 10	++ (between 25% to 100%)	O=C(Nc1ccccc1Oc1ccc(Cl)cc1Cl)c1c[nH]c2ccccc2c1=O [Compound 245, N-[2-(2,4-dichlorophenoxy)phenyl]-4-oxo-1H-quinoline-3-carboxamide]
